Results from patent US12428445B2, “Mini-nucleosome core proteins and use in nucleic acid delivery” (priority 2018, dated 2025).
Where no end group is shown, it is not given here. [ ]: non-standard residue; d: D form. LINKER = not defined here

Experiments:
retina and RPE cells = test: Intraocular (intravitreal) delivery, native GFP fluorescence in retinal sections and RPE whole mounts; assay type: in vivo; conditions: 1.5 micrograms, Balb/c mice
Procedure: In the present Example, Balb/c mice were anesthetized by IP injection with Ketamine/Xylazine (90-100 mg/kg+10 mg/kg) and positioned underneath a microscope. Mice eyes were dilated with topical Tropicamide (1%) and 1 ul of loaded mini-nucleosomes (total dose 1.5 micrograms in mice) were injected into the vitreous cavity using 32 gauze blunt needle passing through the incision made by a 25-gauze needle below the limbus. At various time points, mice were perfused with 10 ml of 1×PBS, and then sacrificed using standard techniques. Mice were enucleated and eyecups were collected and incubated in 4% paraformaldehyde overnight. The eyecups were washed with 1×PBS, then immersed in 15% sucrose for few hours and then in 30% sucrose solution overnight for cryopreservation. The eyecups were then placed in a plastic vial and frozen using OCT compound for cryo-sectioning. 10-micron thick tissue sections were obtained for staining. The retinal sections were mounted with mounting media with or without DAPI, coverslip and sealed. Images were acquired by Leica SP5. For whole mount imaging, eyecups were fixed in 4% paraformaldehyde overnight. Eyecups were washed in 1×PBS, retina was removed and the remaining eyecup or RPE wholemount was processed for staining. The RPE tissue was whole mounted with mounting media, coverslip and sealed. Images were acquired by Leica SP5.
To target the RPE cells, the present Example utilized a mini-nucleosome core protein (SEQ ID NO: 392) that could bind to the phagocytic proteins like MERTK. RPE are phagocytic cells, that extend their microvilli to the photoreceptor inner/outer segment junction. MERTK is expressed in those microvilli. In SEQ ID NO: 392, we incorporated the “eat me” signals as descried in Table 8. In literature, “eat me” signals are described as domains exposed in cellular debris that are primed for phagocytosis (Wei Li, Journal of Cell physiology, 2016, which is incorporated herein by reference). To the present inventor's knowledge, these “eat me” signals have never been utilized in the context of non-viral vectors before. […]

[1] = Transmission Electron Microscopy (TEM) of loaded mini-nucleosomes (shape); assay type: physicochemical; conditions: Luciferase plasmid (SEQ ID NO: 396) condensed with core protein; final formulation in sterile, endotoxin free water
From the text: Provided in this Example are techniques to produce loaded mini-nucleosomes in various formulations, including formulations useful for administration to cells and to mammalian subjects, e.g., humans. Loaded mini-nucleosomes can be formulated to different shape and/or sizes parameters based on the mini-nucleosome core protein amino acid sequence and the buffer conditions in which the synthesis occurs. Loaded mini-nucleosomes can be formulated in different conditions, e.g., with solubility suitable for therapeutic use. Solubility of loaded mini-nucleosomes in water and/or normal saline is one means to allow non-toxic formulation of compositions for administration to patients, and to ease of delivery into patients. To form loaded mini-nucleosomes represented in FIG. 7, core proteins were synthesized by solid phase synthesis using trifluoroacetate buffers. 200 micrograms of DNA (SEQ ID NO: 396) were added to 1 milligram of lyophilized core proteins and vortexed together, and purified to produce loaded mini-nucleosomes (FIG. 7). Buffer exchange was performed and final formulation of mini-nucleosome was made in sterile, endotoxin free water. 1 microgram of each kind of mini-nucleosomes was diluted in water and then placed on grids that were stained with freshly prepared in 0.75% uranyl acetate in methanol solution for two minutes. […]

muscle cells = test: Intramuscular delivery, GFP fluorescence and dystrophin immunolabeling in leg muscle sections; assay type: in vivo; conditions: 17.5 ug per leg, Balb/c mice, 3-months post injection
Procedure: Balb/c mice were anesthetized by IP injection with Ketamine/Xylazine (90-100 mg/kg+10 mg/kg) and several loaded mini-nucleosomes were injected into both leg muscle at 17.5 ug doses per leg using an insulin syringe (Total dose 35 micrograms per mice). Mice were sacrificed at various time points and leg muscle were obtained for tissue sections. […] One skilled in the art may contemplate combining such domains with other domains known for muscle tropism.
To validate muscle specificity of expression of genes encoded by the nucleic acid cargo, we utilized dystrophin immunolabeling as an endogenous secondary marker. […] Native fluorescence of GFP was obtained in the 486-nm channel of Leica SP5 scope. Dystrophin in red is the RFP channel (555-nm). Untransduced muscle cells in figure also serve as internal control for differentiation between GFP signal and autofluorescence.

| Substance | GFP expression / transduction in retina and RPE (retina and RPE cells) | Shape of loaded mini-nucleosome (TEM) [1] | GFP fluorescence in muscle tissue sections at 3 months (muscle cells) |
| --- | --- | --- | --- |
| SEQ ID NO. 388 (KKRHRKLREKRHRKLRRRRRLKRHRKKRHRKLREK; not fully specified) | express GFP to target neuronal cells in the retina |  |  |
| KKKRHRKKKKK-[LINKER]-RGD-[LINKER]-KKKK-[LINKER]-NTQIH-[LINKER]-RRRRR-[LINKER]-TPH-[LINKER]-KK (KKKRHRKKKKK[LINKER]RGD[LINKER]KKKK[LINKER]NTQIH[LINKER]RRRRR[LINKER]TPH[LINKER]KK; reading uncertain; also: linker structure not given here) [SEQ ID NO: 391] |  | mixture of circular and rod like molecules | sharp green fluorescence in skeletal muscle cells |
| KKKRHRKRKRKRKRRRRKKK-[LINKER]-ASSLNIAK-[LINKER]-RRRR (KKKRHRKRKRKRKRRRRKKK[LINKER]ASSLNIAK[LINKER]RRRR; reading uncertain; also: linker structure not given here) [SEQ ID NO: 389] |  |  | didn't exhibit GFP fluorescence |
| CKKKKKKKKKKKKKKKKKKKKKKKKKKKKKK [SEQ ID NO: 393, reference compound] |  | spiral/helical-shaped | didn't exhibit GFP fluorescence |
| SEQ ID NO. 392 (KKKRKKTKKKAKKALKKKKKGKKKKRRRRKAAPKK; not fully specified) | enhanced uptake into the RPE |  |  |
| SEQ ID NO:388 (KKRHRKLREKRHRKLRRRRRLKRHRKKRHRKLREK; not fully specified) | transduction into ganglion cells, bipolar cells and photoreceptors |  |  |
